In US20220151230A1, “SPECIFICALLY SUBSTITUTED 3-(2-HALOGEN-6-ALKYL-4-PROPINYLPHENYL)-3-PYRROLIN-2-ONES AND TO THE USE THEREOF AS HERBICIDES” (Bayer Aktiengesellschaft, priority 2019, published 2022):

What was measured:
DIGSA [1] = experiment: Post-emergence herbicidal effect against DIGSA; assay type: in vivo, Digitaria sanguinalis; conditions: one-leaf stage, 80 g/ha, assessed visually after about 3 weeks vs untreated controls, 100% = plants have died
Experimental: (§1) Seeds of monocotyledonous and dicotyledonous weed and crop plants are laid out in sandy loam soil in wood-fiber pots, covered with soil and cultivated in a greenhouse under good growth conditions. 2 to 3 weeks after sowing, the test plants are treated at the one-leaf stage. The compounds of the invention, formulated in the form of wettable powders (WP) or as emulsion concentrates (EC), are then sprayed onto the green parts of the plants as aqueous suspension or emulsion at a water application rate equating to 600 to 800 l/ha with addition of 0.2% wetting agent. After the test plants have been left to stand in the greenhouse under optimal growth conditions for about 3 weeks, the action of the preparations is assessed visually in comparison to untreated controls (herbicidal action in percent (%): 100% activity=the plants have died, 0% activity=like control plants).

LOLRI [2] = experiment: Post-emergence herbicidal effect against LOLRI; assay type: in vivo, Lolium rigidum; conditions: one-leaf stage, 80 g/ha, assessed visually after about 3 weeks vs untreated controls, 100% = plants have died
Experimental: as §1

SETVI [3] = experiment: Post-emergence herbicidal effect against SETVI; assay type: in vivo, Setaria viridis; conditions: one-leaf stage, 80 g/ha, assessed visually after about 3 weeks vs untreated controls, 100% = plants have died
Experimental: as §1

LOLRI [4] = experiment: Pre-emergence herbicidal effect against LOLRI; assay type: in vivo, Lolium rigidum; conditions: 320 g/ha, scored visually after 3 weeks vs untreated controls, 100% = plants have died
Excerpt: (§2) Seeds of monocotyledonous and dicotyledonous weed plants and crop plants are laid out in sandy loam soil in wood-fiber pots and covered with soil. The compounds of the invention, formulated in the form of wettable powders (WP) or as emulsion concentrates (EC), are then applied to the surface of the covering soil as aqueous suspension or emulsion at a water application rate equating to 600 to 800 L/ha with addition of 0.2% wetting agent.
(§3) After the treatment, the pots are placed in a greenhouse and kept under good growth conditions for the trial plants. The damage to the test plants is scored visually after a test period of 3 weeks by comparison with untreated controls (herbicidal activity in percent (%): 100% activity=the plants have died, 0% activity=like control plants).

AVEFA [5] = experiment: Pre-emergence herbicidal effect against AVEFA; assay type: in vivo, Avena fatua; conditions: 320 g/ha, scored visually after 3 weeks vs untreated controls, 100% = plants have died
Excerpt: as §2, §3

ECHCG [6] = experiment: Pre-emergence herbicidal effect against ECHCG; assay type: in vivo, Echinochloa crus-galli; conditions: 320 g/ha, scored visually after 3 weeks vs untreated controls, 100% = plants have died
Excerpt: as §2, §3

SETVI [7] = experiment: Pre-emergence herbicidal effect against SETVI; assay type: in vivo, Setaria viridis; conditions: 320 g/ha, scored visually after 3 weeks vs untreated controls, 100% = plants have died
Excerpt: as §2, §3

ALOMY [8] = experiment: Post-emergence herbicidal effect against ALOMY; assay type: in vivo, Alopecurus myosuroides; conditions: one-leaf stage, 80 g/ha, assessed visually after about 3 weeks vs untreated controls, 100% = plants have died
Experimental: as §1

ALOMY [9] = experiment: Pre-emergence herbicidal effect against ALOMY; assay type: in vivo, Alopecurus myosuroides; conditions: 320 g/ha, scored visually after 3 weeks vs untreated controls, 100% = plants have died
Excerpt: as §2, §3

VIOTR = experiment: Pre-emergence herbicidal effect against VIOTR; assay type: in vivo, Viola tricolor; conditions: 320 g/ha, scored visually after 3 weeks vs untreated controls, 100% = plants have died
Excerpt: as §2, §3

ECHCG [10] = experiment: Post-emergence herbicidal effect against ECHCG; assay type: in vivo, Echinochloa crus-galli; conditions: one-leaf stage, 80 g/ha, assessed visually after about 3 weeks vs untreated controls, 100% = plants have died
Experimental: as §1

DIGSA [11] = experiment: Pre-emergence herbicidal effect against DIGSA; assay type: in vivo, Digitaria sanguinalis; conditions: 320 g/ha, scored visually after 3 weeks vs untreated controls, 100% = plants have died
Excerpt: as §2, §3

AVEFA [12] = experiment: Post-emergence herbicidal effect against AVEFA; assay type: in vivo, Avena fatua; conditions: one-leaf stage, 80 g/ha, assessed visually after about 3 weeks vs untreated controls, 100% = plants have died
Experimental: as §1

Row | SMILES | Post-emergence action [%] against DIGSA (DIGSA [1]) | Post-emergence action [%] against LOLRI (LOLRI [2]) | Post-emergence action [%] against SETVI (SETVI [3]) | Pre-emergence action [%] against LOLRI (LOLRI [4]) | Pre-emergence action [%] against AVEFA (AVEFA [5]) | Pre-emergence action [%] against ECHCG (ECHCG [6]) | Pre-emergence action [%] against SETVI (SETVI [7]) | Post-emergence action [%] against ALOMY (ALOMY [8]) | Pre-emergence action [%] against ALOMY (ALOMY [9]) | Pre-emergence action [%] against VIOTR (VIOTR) | Post-emergence action [%] against ECHCG (ECHCG [10]) | Pre-emergence action [%] against DIGSA (DIGSA [11]) | Post-emergence action [%] against AVEFA (AVEFA [12])
1 | CC#Cc1cc(Br)c(C2=C(O)C3(CCC(OC)CC3)NC2=O)c(C2CC2)c1 (stereo not shown) [Example E26] | 100% | 100% | 100% | 100% | 90% | 100% | 100% | 100% | 100% | 90% | 100% | 100% | 
2 | CC#Cc1cc(C)c(C2=C(OC(=O)OCC)C3(CCC(OC)CC3)NC2=O)c(Br)c1 (stereo not shown) [Example P13] | 100% | 100% | 100% | 100% | 100% | 100% | 100% | 100% | 100% | 100% | 100% | 100% | 100%
3 | CC#Cc1cc(Cl)c(C2=C(O)C3(CCC(OC)CC3)NC2=O)c(CC)c1 (stereo not shown) [Example E20] | 100% | 80% | 100% | 90% | 100% | 100% | 100% |  | 100% | 100% | 100% | 100% | 90%
4 | CC#Cc1cc(C)c(C2=C(O)C3(CCC(OC)CC3)NC2=O)c(Br)c1 (stereo not shown) [Example E21] | 100% | 100% | 100% | 100% | 100% | 100% | 100% | 100% | 100% | 100% | 100% | 100% | 90%
5 | CC#Cc1cc(Cl)c(C2=C(OC(=O)OCC)C3(CCC(OC)CC3)NC2=O)c(CC)c1 (stereo not shown) [Example P21] | 100% | 80% | 100% | 100% | 100% | 100% | 100% | 90% | 100% | 90% | 100% | 100% | 80%
6 | CC#Cc1cc(C)c(C2=C(OC(=O)OC)C3(CCCC(OCC(C)C)C3)NC2=O)c(Cl)c1 (stereo not shown) [Example Q6] | 100% | 100% | 100% | 100% | 90% | 100% | 100% | 100% | 100% |  | 100% | 100% | 100%
7 | CC#Cc1cc(Cl)c(C2=C(O)C3(CCC(OC)CC3)NC2=O)c(C2CC2)c1 (stereo not shown) [Example E24] |  | 100% | 100% | 100% | 100% | 100% | 100% | 100% | 100% | 100% | 100% | 100% | 100%
8 | CC#Cc1cc(Br)c(C2=C(O)C3(CCC(OC)CC3)NC2=O)c(CC)c1 (stereo not shown) [Example E25] |  |  | 90% |  |  |  |  | 90% |  | 80% |  |  | 
9 | CC#Cc1cc(C)c(C2=C(O)C3(CCCC(OCC(C)C)C3)NC2=O)c(Cl)c1 (stereo not shown) [Example D9] | 90% | 90% | 100% | 100% | 100% | 100% | 100% | 100% | 100% | 100% | 100% | 100% | 90%
10 | CC#Cc1cc(Br)c(C2=C(O)C3(CCCC(OCCOC)C3)NC2=O)c(C2CC2)c1 (stereo not shown) [Example D11] | 100% | 100% | 100% | 100% | 100% | 100% | 100% | 100% | 100% | 100% | 100% | 100% | 
11 | CC#Cc1cc(Cl)c(C2=C(O)C3(CCC(OCC)CC3)NC2=O)c(CC)c1 (stereo not shown) [Example E12] |  |  | 100% | 100% | 90% | 100% | 100% |  | 90% | 100% | 100% | 100% | 
